The target in this experiment is Transient receptor potential cation channel subfamily V member 1 (Homo sapiens, UniProt Q8NER1). The experiment in a line: Ca2+ Influx Functional Assay for the Determination of in Vitro Activity. The following applies: pH 7.4; 22 °C; read-out: EC50 (the source's name). The procedure:
The functional antagonist activity of compounds at the TRPV1 receptor was determined with a Ca2+ influx assay by measuring the effect on capsaicin (0.05 uM) evoked increase in intracellular Ca2+ levels using cells stably expressing recombinant human TRPV1. All compounds were tested over an 11-point half-log concentration range. The fluorescent Ca2+ chelating dye fluo-4 was used as an indicator of the relative levels of Ca2+ in a 96-well format using a fluorescence imaging plate reader. Fluorescence readings were made at 1-5 s intervals over the 240 s course of the experimental run. The peak increase in relative fluorescence units was calculated and expressed as a percentage of the 0.05 uM capsaicin (control) response. Curve fits of the data were solved using a four-parameter logistic Hill equation in GraphPad Prism, and IC50 values were calculated.

Chain of Transient receptor potential cation channel subfamily V member 1 (Q8NER1 whole entry): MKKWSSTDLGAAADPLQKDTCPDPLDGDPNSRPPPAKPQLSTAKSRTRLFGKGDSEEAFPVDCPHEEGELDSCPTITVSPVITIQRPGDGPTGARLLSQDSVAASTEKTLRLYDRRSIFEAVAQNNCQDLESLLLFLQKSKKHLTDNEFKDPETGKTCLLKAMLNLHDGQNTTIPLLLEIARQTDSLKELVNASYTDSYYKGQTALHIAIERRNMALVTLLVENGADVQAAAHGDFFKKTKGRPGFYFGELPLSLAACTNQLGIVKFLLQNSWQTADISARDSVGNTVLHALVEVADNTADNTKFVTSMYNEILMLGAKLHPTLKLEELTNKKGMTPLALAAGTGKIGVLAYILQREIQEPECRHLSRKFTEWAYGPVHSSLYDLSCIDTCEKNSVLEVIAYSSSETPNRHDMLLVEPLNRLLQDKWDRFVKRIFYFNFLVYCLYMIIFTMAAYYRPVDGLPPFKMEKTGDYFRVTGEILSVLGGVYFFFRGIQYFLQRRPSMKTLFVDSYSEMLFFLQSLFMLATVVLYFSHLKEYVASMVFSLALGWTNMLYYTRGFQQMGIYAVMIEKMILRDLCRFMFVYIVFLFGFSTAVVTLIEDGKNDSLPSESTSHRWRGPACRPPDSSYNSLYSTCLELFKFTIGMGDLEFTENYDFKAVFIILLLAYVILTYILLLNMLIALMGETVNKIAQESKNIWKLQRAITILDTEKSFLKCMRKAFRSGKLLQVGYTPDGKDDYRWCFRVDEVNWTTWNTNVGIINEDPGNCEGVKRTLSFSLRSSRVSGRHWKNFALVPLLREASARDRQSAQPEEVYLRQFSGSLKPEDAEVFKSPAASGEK

Take `CC(C)(NC(=O)Nc1cccc2cnccc12)c1ccc(C(F)(F)F)cc1` [1-isoquinolin-5-yl-3-{2-[4-(trifluoromethyl)phenyl]propan-2-yl}urea]: the IC50 stood at 94 nM.

Consider `CCc1cc(C(C)(C)C)ccc1C(C)NC(=O)Nc1cccc2cnccc12` (configuration not stated) [3-[1-(4-tert-butyl-2-ethylphenyl)ethyl]-1-isoquinolin-5-ylurea], for which the IC50 worked out at 20 nM.

Turning to `CCC(NC(=O)Nc1cccc2cnccc12)c1ccc(C(F)(F)F)c(F)c1` (configuration not stated) [3-{1-[3-fluoro-4-(trifluoromethyl)phenyl]propyl}-1-isoquinolin-5-ylurea], the IC50 came out at 109 nM.

Turning to `CCC(NC(=O)Nc1cccc2cnccc12)c1ccccc1` (configuration not stated) [1-isoquinolin-5-yl-3-(1-phenylpropyl)urea], the IC50 worked out at 2580 nM.

As to `O=C(Nc1cccc2cnccc12)NC(c1ccc(C(F)(F)F)cc1)C1CCCCC1` (configuration not stated) [1-{cyclohexyl[4-(trifluoromethyl)phenyl]methyl}-3-isoquinolin-5-ylurea], the IC50 came out at 287 nM.

As to `CN(C)CC(NC(=O)Nc1cccc2cnccc12)c1ccccc1` (configuration not stated) [3-[2-(dimethylamino)-1-phenylethyl]-1-isoquinolin-5-ylurea], the IC50 was determined as 31000 nM.

As to `O=C(Nc1cccc2cnccc12)NC(c1ccc(C(F)(F)F)cc1)C1CC1` (configuration not stated) [3-{cyclopropyl[4-(trifluoromethyl)phenyl]methyl}-1-isoquinolin-5-ylurea], the IC50 came out at 149 nM.

Regarding `C[C@@H](NC(=O)Nc1cccc2[nH]ncc12)c1ccc2ccccc2c1` [3-1H-indazol-4-yl-1-[(1R)-1-(naphthalen-2-yl)ethyl]urea], the IC50 is 123 nM.

Consider `O=C(Nc1cccc2cnccc12)NC(c1ccccc1)c1ccccc1` [1-(diphenylmethyl)-3-isoquinolin-5-ylurea], for which the IC50 amounted to 600 nM.

On to `CC(NC(=O)Nc1cccc2cnccc12)c1ccc(C(C)(C)C)cc1` (configuration not stated) [3-[1-(4-tert-butylphenyl)ethyl]-1-isoquinolin-5-ylurea], for which the IC50 was determined as 24 nM.

Regarding `CC(NC(=O)Nc1cccc2cnccc12)c1ccc(C(C)(C)C)cc1C(C)(C)C` (configuration not stated) [3-[1-(2,4-di-tert-butylphenyl)ethyl]-1-isoquinolin-5-ylurea], the IC50 is 17 nM.

On to `O=C(Nc1cccc2cnccc12)NC(c1ccccc1)c1ccc(N2CCCCC2)cc1` (configuration not stated) [3-isoquinolin-5-yl-1-{phenyl[4-(piperidin-1-yl)phenyl]methyl}urea], for which the IC50 was 171 nM.

`CC(NC(=O)Nc1cccc2cnccc12)c1ccc(C(F)(F)F)c(F)c1` (configuration not stated) [3-{1-[3-fluoro-4-(trifluoromethyl)phenyl]ethyl}-1-isoquinolin-5-ylurea]: the IC50 was 19 nM.

`Cc1cc(C(C)(C)C)ccc1C(C)NC(=O)Nc1cccc2cnccc12` (configuration not stated) [3-[1-(4-tert-butyl-2-methylphenyl)ethyl]-1-isoquinolin-5-ylurea]: the IC50 is 46 nM.

As for `Cc1ccc([C@@H](C)NC(=O)Nc2cccc3[nH]ncc23)cc1` [3-1H-indazol-4-yl-1-[(1R)-1-(4-methylphenyl)ethyl]urea], the IC50 was found to be 73 nM.

Regarding `C[C@@H](NC(=O)Nc1cccc2[nH]ncc12)c1ccc(C(F)(F)F)cc1` [3-1H-indazol-4-yl-1-[(1R)-1-[4-(trifluoromethyl)phenyl]ethyl]urea], the IC50 worked out at 41 nM.

For the molecule `CC(C)(C)c1ccc(C(NC(=O)Nc2cccc3cnccc23)c2ccccc2)cc1` (configuration not stated) [1-[(4-tert-butylphenyl)(phenyl)methyl]-3-isoquinolin-5-ylurea], the IC50 worked out at 125 nM.

Take `CC(NC(=O)Nc1cccc2cnccc12)c1ccc(C(F)(F)F)cc1` (configuration not stated): the IC50 was 22 nM.

On to `O=C(Nc1cccc2cnccc12)NC(c1ccccc1)c1ccc(C(F)(F)F)cc1` (configuration not stated) [3-isoquinolin-5-yl-1-{phenyl[4-(trifluoromethyl)phenyl]methyl}urea], for which the IC50 worked out at 147 nM.

Turning to `N#CCC(NC(=O)Nc1cccc2cnccc12)c1ccccc1` (configuration not stated) [3-(2-cyano-1-phenylethyl)-1-isoquinolin-5-ylurea], the IC50 stood at 15900 nM.

`Cc1ccc([C@H](C)NC(=O)Nc2cccc3[nH]ncc23)cc1` [3-1H-indazol-4-yl-1-[(1S)-1-(4-methylphenyl)ethyl]urea]: the IC50 was found to be 749 nM.

With `CC(NC(=O)Nc1cccc2[nH]ncc12)c1ccc(C(F)(F)F)cc1` (racemic) [3-1H-indazol-4-yl-1-{1-[4-(trifluoromethyl)phenyl]ethyl}urea], the IC50 came to 47 nM.

As for `CC(C)(NC(=O)Nc1cccc2cnccc12)c1ccc(Cl)cc1` [3-[2-(4-chlorophenyl)propan-2-yl]-1-isoquinolin-5-ylurea], the IC50 stood at 143 nM.

For `O=C(Nc1cccc2cnccc12)NC(c1ccc(C(F)(F)F)cc1)C1CCCC1` (configuration not stated) [3-{cyclopentyl[4-(trifluoromethyl)phenyl]methyl}-1-isoquinolin-5-ylurea], the IC50 was 476 nM.

Take `C[C@H](NC(=O)Nc1cccc2[nH]ncc12)c1ccc(C(F)(F)F)cc1` [3-1H-indazol-4-yl-1-[(1S)-1-[4-(trifluoromethyl)phenyl]ethyl]urea]: the IC50 was 248 nM.

On to `CC(NC(=O)Nc1cccc2cnccc12)c1ccc(Br)cc1` (configuration not stated) [3-[1-(4-bromophenyl)ethyl]-1-isoquinolin-5-ylurea], for which the IC50 was found to be 26 nM.

Regarding `C[C@H](NC(=O)Nc1cccc2[nH]ncc12)c1ccc2ccccc2c1` [3-1H-indazol-4-yl-1-[(1S)-1-(naphthalen-2-yl)ethyl]urea], the IC50 stood at 3750 nM.

The record behind these values is BindingDB's records for doi:10.1016/j.bmcl.2007.04.105 (Abbott Laboratories, 2007).
